The target of assay [1] is T1, SMARCA2-HiBiT HeLa cells (protein which is expressed from the SMARCA2 gene) (Homo sapiens, UniProt P51531).
T1 construct: protein which is expressed from the SMARCA2 and SMARCA4 genes; host or cells: HeLa (SMARCA2-HiBiT engineered line)
Put plainly: SMARCA2 degradation assay (HiBiT-fusion HeLa cell line, 24 h, luminescence). The class given is cell-based. On the procedure: (§1) SMARCA2 and SMARCA4 Degradation Assay
(§2) Degradation of protein which is expressed from the SMARCA2 and SMARCA4 genes was monitored using engineered HiBiT-fusion HeLa cell lines from Promega. In brief, 384-well white opaque plates (Greiner) were seeded with SMARCA2-HiBiT or SMARCA4-HiBiT HeLa cells at 8,000 cells/well and incubated overnight at 37° C. to allow cell attachment. After overnight incubation, test compounds were added in a 10-point dilution series (typically 10 μM to 300 pM) using a TECAN D300e Digital Dispenser, and plates were subsequently incubated for 24 hours at 37° C. 24-hours post-treatment, protein levels were quantified with the addition of HiBiT lytic buffer, LgBiT protein, and HiBiT substrate, according to manufacturer's specifications. Plates were incubated on an orbital plate shaker for 10 minutes at room temperature. Resulting luminescent values were read out using a ClarioStar plate reader and used to construct dose-response curves and calculation of degradation DC50s (GraphPad Prism).
(§3) Activity of the tested compounds is provided in Table 4 below as follows: A=DC50<0.050 μM; B=0.05 μM<DC50<0.50 μM; C=<0.5 μM<DC50<5.0 μM; D=DC50>5.0 μM. For SMARCA2 and SMARCA4 degradation activity @1 μM, +++=>70%; ++=30-70%; +=<30%.
On the technique in general: The HiBiT peptide binds its large partner to form an active luciferase.

For assay [2], the target named is T2, SMARCA4-HiBiT HeLa cells (protein which is expressed from the SMARCA4 gene) (Homo sapiens, UniProt P51532).
T2 construct: protein which is expressed from the SMARCA2 and SMARCA4 genes; host or cells: HeLa (SMARCA4-HiBiT engineered line)
Put plainly: SMARCA4 degradation assay (HiBiT-fusion HeLa cell line, 24 h, luminescence). The format is cell-based. On the procedure:
as §1, §2, §3

T1 sequence (P51531 whole entry): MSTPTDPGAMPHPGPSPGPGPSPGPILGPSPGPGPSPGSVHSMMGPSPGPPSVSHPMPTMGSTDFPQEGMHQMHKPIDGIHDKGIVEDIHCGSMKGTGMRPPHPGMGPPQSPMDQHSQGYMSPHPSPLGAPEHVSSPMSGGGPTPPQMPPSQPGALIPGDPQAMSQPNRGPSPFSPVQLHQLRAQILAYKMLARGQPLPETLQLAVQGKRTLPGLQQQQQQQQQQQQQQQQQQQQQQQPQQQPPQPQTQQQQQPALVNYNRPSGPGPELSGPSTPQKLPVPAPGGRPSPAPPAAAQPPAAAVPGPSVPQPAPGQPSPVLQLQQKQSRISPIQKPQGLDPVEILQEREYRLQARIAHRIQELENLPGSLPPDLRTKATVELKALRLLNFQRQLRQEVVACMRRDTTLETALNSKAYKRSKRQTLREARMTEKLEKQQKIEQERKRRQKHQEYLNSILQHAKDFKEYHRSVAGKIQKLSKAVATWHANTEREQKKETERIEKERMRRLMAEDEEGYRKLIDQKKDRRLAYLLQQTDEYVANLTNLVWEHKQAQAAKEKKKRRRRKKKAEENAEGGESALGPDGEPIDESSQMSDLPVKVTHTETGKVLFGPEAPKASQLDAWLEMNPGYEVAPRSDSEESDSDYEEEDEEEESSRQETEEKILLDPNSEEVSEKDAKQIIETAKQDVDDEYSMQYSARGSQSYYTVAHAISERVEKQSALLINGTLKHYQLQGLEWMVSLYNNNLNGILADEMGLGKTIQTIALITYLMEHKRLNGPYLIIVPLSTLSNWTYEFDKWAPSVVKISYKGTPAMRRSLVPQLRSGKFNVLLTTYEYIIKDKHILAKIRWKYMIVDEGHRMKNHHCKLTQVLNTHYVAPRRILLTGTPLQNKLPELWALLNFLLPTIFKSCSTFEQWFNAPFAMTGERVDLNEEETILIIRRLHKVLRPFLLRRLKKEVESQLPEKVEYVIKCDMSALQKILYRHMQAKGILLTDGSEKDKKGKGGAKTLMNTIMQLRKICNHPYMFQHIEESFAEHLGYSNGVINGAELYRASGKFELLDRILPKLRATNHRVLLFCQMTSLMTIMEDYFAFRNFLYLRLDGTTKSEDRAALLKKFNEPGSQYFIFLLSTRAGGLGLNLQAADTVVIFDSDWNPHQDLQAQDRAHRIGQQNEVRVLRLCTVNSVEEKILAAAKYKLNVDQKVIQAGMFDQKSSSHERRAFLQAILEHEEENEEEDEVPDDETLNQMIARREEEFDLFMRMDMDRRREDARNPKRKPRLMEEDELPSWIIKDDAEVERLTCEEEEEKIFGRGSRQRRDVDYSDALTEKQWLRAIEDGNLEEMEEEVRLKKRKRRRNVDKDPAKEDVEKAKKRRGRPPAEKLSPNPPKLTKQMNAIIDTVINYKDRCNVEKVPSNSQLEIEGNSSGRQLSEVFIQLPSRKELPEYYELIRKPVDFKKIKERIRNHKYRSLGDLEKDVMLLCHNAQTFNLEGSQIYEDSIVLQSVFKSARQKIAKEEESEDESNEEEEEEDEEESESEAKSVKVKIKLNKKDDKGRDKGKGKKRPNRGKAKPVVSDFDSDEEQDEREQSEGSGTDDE
T2 sequence (P51532 whole entry): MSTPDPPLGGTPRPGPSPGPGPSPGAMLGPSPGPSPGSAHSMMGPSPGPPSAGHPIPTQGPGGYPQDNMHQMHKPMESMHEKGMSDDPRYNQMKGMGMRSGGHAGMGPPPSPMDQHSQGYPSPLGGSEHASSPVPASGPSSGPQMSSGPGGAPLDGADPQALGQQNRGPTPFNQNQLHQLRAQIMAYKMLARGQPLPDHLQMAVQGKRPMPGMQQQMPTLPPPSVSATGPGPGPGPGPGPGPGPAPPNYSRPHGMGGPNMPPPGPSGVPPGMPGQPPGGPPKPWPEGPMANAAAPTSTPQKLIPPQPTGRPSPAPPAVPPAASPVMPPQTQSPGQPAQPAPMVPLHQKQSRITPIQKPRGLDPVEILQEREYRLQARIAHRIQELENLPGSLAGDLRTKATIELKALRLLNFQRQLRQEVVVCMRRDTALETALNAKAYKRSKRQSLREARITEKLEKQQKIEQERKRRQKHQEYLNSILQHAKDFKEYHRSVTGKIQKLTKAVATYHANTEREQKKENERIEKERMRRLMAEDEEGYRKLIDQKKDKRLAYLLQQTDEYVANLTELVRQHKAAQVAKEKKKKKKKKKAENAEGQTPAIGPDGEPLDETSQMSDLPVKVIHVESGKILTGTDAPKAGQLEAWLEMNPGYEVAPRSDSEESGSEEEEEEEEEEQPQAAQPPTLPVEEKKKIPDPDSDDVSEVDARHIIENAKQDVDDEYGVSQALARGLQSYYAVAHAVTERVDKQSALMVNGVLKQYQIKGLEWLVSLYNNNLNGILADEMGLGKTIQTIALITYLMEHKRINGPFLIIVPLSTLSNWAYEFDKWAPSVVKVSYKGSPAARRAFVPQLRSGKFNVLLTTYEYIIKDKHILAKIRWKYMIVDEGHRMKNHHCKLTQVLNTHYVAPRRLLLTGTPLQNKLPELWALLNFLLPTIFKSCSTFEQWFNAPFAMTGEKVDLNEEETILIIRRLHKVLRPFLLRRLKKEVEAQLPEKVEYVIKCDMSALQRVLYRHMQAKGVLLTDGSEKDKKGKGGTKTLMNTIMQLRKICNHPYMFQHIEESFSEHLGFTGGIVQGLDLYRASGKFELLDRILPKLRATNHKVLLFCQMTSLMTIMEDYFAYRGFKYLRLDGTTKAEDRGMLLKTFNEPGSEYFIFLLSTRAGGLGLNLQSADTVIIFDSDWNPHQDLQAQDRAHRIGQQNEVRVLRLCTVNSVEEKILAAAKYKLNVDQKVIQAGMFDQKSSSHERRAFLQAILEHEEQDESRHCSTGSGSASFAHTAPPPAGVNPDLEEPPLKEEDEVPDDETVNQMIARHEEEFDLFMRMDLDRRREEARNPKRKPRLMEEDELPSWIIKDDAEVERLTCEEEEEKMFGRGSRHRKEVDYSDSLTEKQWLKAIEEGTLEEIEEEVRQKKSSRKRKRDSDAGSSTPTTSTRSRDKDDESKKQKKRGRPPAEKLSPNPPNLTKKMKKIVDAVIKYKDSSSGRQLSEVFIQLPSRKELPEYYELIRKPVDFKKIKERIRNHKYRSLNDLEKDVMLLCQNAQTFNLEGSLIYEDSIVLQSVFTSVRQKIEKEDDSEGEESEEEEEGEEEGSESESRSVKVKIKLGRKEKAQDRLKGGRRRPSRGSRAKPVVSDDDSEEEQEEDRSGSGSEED

For `Nc1nnc(-c2ccccc2O)cc1N1CCCN(c2ccnc(C#CCn3ccnc3)n2)CC1` [Compound P-145, 2-(5-(4-(2-(3-(1H-imidazol-1-yl)prop-1-yn-1-yl)pyrimidin-4-yl)-1,4-diazepan-1-yl)-6-aminopyridazin-3-yl)phenol], the DC50 in assay [1] and in assay [2] was 0.05 to 0.5 µM in each case. In assay [1] (@ 1 μM), the “SMARCA2 % Degradation @ 1 μM” value is “+++ (+++=>70%)”. Moreover, in assay [2] (@ 1 μM), the inhibition (commonly the change of the read-out against control, counted positive when it falls) at 1 µM is 30 to 70%.

Consider `N#Cc1ccc(N2C3CCC2CN(c2cnnc(-c4ccccc4O)c2)C3)nc1C#CCN1CC[C@H](F)C1` [Compound P-402, 2-{3-[(S)-3-fluoro-1-pyrrolidinyl]-1-propynyl}-6-{3-[6-(o-hydroxyphenyl)-4-pyridazinyl]-3,8-diazabicyclo[3.2.1]oct-8-yl}nicotinonitrile], for which the DC50 in assay [1] and in assay [2] was 0.05 to 0.5 µM in each case. In addition, the “SMARCA2 % Degradation @ 1 μM” value in assay [1] (1 μM) is on record as “++ (++=30-70%)”. The inhibition at 1 µM in assay [2] (1 μM) was under 30%.

Regarding `C[C@@H]1CCN(c2cc(-c3ccccc3O)nnc2N)CCN1c1ccnc(C#CCN2CC[C@H](F)C2)n1` [Compound P-244, o-{5-[(R)-4-(2-{3-[(S)-3-fluoro-1-pyrrolidinyl]-1-propynyl}-4-pyrimidinyl)-5-methyl-1,4-diazepan-1-yl]-6-amino-3-pyridaziny1}phenol], the DC50 in assay [1] and in assay [2] was under 0.05 µM in each case. Besides, the “SMARCA2 % Degradation @ 1 μM” value in assay [1] (@ 1 μM) is reported as “++ (++=30-70%)”. In assay [2] (@ 1 μM), this compound gave an inhibition at 1 µM of 30 to 70%.

Consider `COC/C=C/c1nccc(N2CCCN(c3cc(-c4ccccc4O)nnc3N)CC2)n1` [Compound P-159, o-(6-amino-5-{4-[2-(3-methoxy-1-propenyl)-4-pyrimidinyl]-1,4-diazepan-1-yl}-3-pyridazinyl)phenol], for which the DC50 in assay [1] and in assay [2] was 0.05 to 0.5 µM throughout. Besides, the “SMARCA2 % Degradation @ 1 μM” value in assay [1] (@ 1 μM) is on record as “+++ (+++=>70%)”. Besides, the inhibition at 1 µM in assay [2] (@ 1 μM) lay within 30 to 70%.

Regarding `Nc1nnc(-c2ccccc2O)cc1N1CC2CN(c3ccnc(C#CCNC(=O)c4cc5ncccn5n4)n3)CC21` (stereo not drawn) [Compound P-45, N-(3-(4-(6-(3-amino-6-(2-hydroxyphenyl)pyridazin-4-yl)-3,6-diazabicyclo[3.2.0]heptan-3-yl)pyrimidin-2-yl)prop-2-yn-1-yl)pyrazolo[1,5-a]pyrimidine-2-carboxamide], the DC50 in assay [1] and in assay [2] was 0.5 to 5 µM each time. Moreover, in assay [1] (@ 1 μM), the “SMARCA2 % Degradation @ 1 μM” value is given as “+ (+=<30%)”. In assay [2] (@ 1 μM), this compound came in with an inhibition at 1 µM of under 30%.

As to `C[C@H]1CN(c2cc(-c3ccccc3O)nnc2N)[C@@H](C)CN1c1ccnc(C#CCNC(=O)c2cc3ncccn3n2)n1` [Compound P-343, N-[3-(4-{(2S,5S)-4-[3-amino-6-(0-hydroxyphenyl)-4-pyridaziny1]-2,5-dimethyl-1-piperazinyl}-2-pyrimidinyl)-2-propynyl]-1,4,7a-triaza-2-indenecarboxamide], the DC50 in assay [1] and in assay [2] was 0.05 to 0.5 µM each time. The “SMARCA2 % Degradation @ 1 μM” value in assay [1] (@ 1 μM) is on record as “++ (++=30-70%)”. In addition, the inhibition at 1 µM in assay [2] (@ 1 μM) was 30 to 70%.

For the compound `COCc1cc(N2CCCN(c3cc(-c4ccccc4O)nnc3N)CC2)nc(C#CCNC(=O)c2nn(C)c(C)c2C)n1` [Compound P-126, N-(3-(4-(4-(3-amino-6-(2-hydroxyphenyl)pyridazin-4-yl)-1,4-diazepan-1-yl)-6-(methoxymethyl)pyrimidin-2-yl)prop-2-yn-1-yl)-1,4,5-trimethyl-1H-pyrazole-3-carboxamide], the half-maximal degradation concentration (DC50) in assay [1] and in assay [2] was 0.05 to 0.5 µM each time. The “SMARCA2 % Degradation @ 1 μM” value in assay [1] (@ 1 μM) was “++ (++=30-70%)”. For the same compound, the inhibition at 1 µM in assay [2] (@ 1 μM) lay in the range of 30 to 70%.

With `CC1(C)CN(CC#Cc2nccc(N3CCCN(c4cc(-c5ccccc5O)nnc4N)CC3)n2)CCO1` [Compound P-311, 0-[6-amino-5-(4-{2-[3-(2,2-dimethyl-4-morpholinyl)-1-propynyl]-4-pyrimidinyl}-1,4-diazepan-1-yl)-3-pyridazinyl]phenol], the DC50 (as a rule, the concentration giving 50% degradation) in assay [1] fell in the range of 0.05 to 0.5 µM; in assay [2], 0.5 to 5 µM. Moreover, the “SMARCA2 % Degradation @ 1 μM” value in assay [1] (@ 1 μM) was “++ (++=30-70%)”. This compound had an inhibition at 1 µM in assay [2] (@ 1 μM) of 30 to 70%.

In the case of `Nc1nnc(-c2ccccc2O)cc1N1CCCN(c2ccnc(C#CCN3C[C@@H]4C[C@H]3CO4)n2)CC1` [Compound P-377, 0-(5-{4-[2-(3-{(1S,4S)-2-oxa-5-azabicyclo[2.2.1]hept-5-yl}-1-propynyl)-4-pyrimidinyl]-1,4-diazepan-1-y1}-6-amino-3-pyridazinyl)phenol], the DC50 in assay [1] lay within 0.05 to 0.5 µM; in assay [2], 0.5 to 5 µM. The “SMARCA2 % Degradation @ 1 μM” value in assay [1] (@ 1 μM) was “++ (++=30-70%)”. This compound yielded an inhibition at 1 µM in assay [2] (@ 1 μM) of 30 to 70%.

Consider `Nc1nnc(-c2ccccc2O)cc1N1CCCN(c2ccnc(C#CCN[C@@H]3CCOC3)n2)CC1` [Compound P-273, 0-{5-[4-(2-{3-[(R)-tetrahydro-3-furylamino]-1-propynyl}-4-pyrimidinyl)-1,4-diazepan-1-yl]-6-amino-3-pyridazinyl}phenol], for which the half-maximal degradation concentration (DC50) in assay [1] and in assay [2] was 0.05 to 0.5 µM throughout. The “SMARCA2 % Degradation @ 1 μM” value in assay [1] (@ 1 μM) is recorded as “+++ (+++=>70%)”. This compound gave an inhibition at 1 µM in assay [2] (@ 1 μM) of 30 to 70%.

As for `C[C@@H]1CN(CC#Cc2nccc(N3CCCN(c4cc(-c5ccccc5O)nnc4N)CC3)n2)C[C@@H](C)O1` [Compound P-356, 0-{5-[4-(2-{3-[(2R,6R)-2,6-dimethyl-4-morpholinyl]-1-propynyl}-4-pyrimidinyl)-1,4-diazepan-1-yl]-6-amino-3-pyridazinyl}phenol], the half-maximal degradation concentration (DC50) in assay [1] and in assay [2] was 0.5 to 5 µM throughout. The “SMARCA2 % Degradation @ 1 μM” value in assay [1] (@ 1 μM) is “++ (++=30-70%)”. Also, in assay [2] (@ 1 μM), the inhibition at 1 µM is under 30%.

As to `COCC#Cc1cc(N2CCN(c3cc(-c4ccccc4O)nnc3N)CC[C@H]2C)ccn1` [Compound P-398, 0-(5-{(R)-4-[2-(3-methoxy-1-propynyl)-4-pyridyl]-5-methyl-1,4-diazepan-1-yl}-6-amino-3-pyridazinyl)phenol], the half-maximal degradation concentration (DC50) in assay [1] was in the range of 0.05 to 0.5 µM; in assay [2] it was 0.5 to 5 µM. In addition, the “SMARCA2 % Degradation @ 1 μM” value in assay [1] (1 μM) is on record as “++ (++=30-70%)”. Besides, the inhibition at 1 µM in assay [2] (1 μM) was in the range of 30 to 70%.

As to `Nc1nnc(-c2ccccc2O)cc1N1CCCN(c2ccnc(C#Cc3cnc4cnccn34)n2)CC1` [Compound P-135, 2-(6-amino-5-(4-(2-(imidazo[1,2-a]pyrazin-3-ylethynyl)pyrimidin-4-yl)-1,4-diazepan-1-yl)pyridazin-3-yl)phenol], the DC50 in assay [1] and in assay [2] was 0.05 to 0.5 µM throughout. Besides, the “SMARCA2 % Degradation @ 1 μM” value in assay [1] (@ 1 μM) is “++ (++=30-70%)”. Moreover, in assay [2] (@ 1 μM), the inhibition at 1 µM is 30 to 70%.

As to `C[C@@H]1CCN1CC#Cc1nccc(N2CCCN(c3cc(-c4ccccc4O)nnc3N)CC2)n1` [Compound P-299, 0-{5-[4-(2-{3-[(R)-2-methyl-1-azetidinyl]-1-propynyl}-4-pyrimidinyl)-1,4-diazepan-1-y1]-6-amino-3-pyridaziny1} phenol], the DC50 in assay [1] and in assay [2] was 0.05 to 0.5 µM throughout. In assay [1] (@ 1 μM), the “SMARCA2 % Degradation @ 1 μM” value is “+++ (+++=>70%)”. In assay [2] (@ 1 μM), this compound returned an inhibition at 1 µM of 30 to 70%.

Consider `CC1(C)CN(c2ccnc(C#CCNC(=O)c3cc4ncccn4n3)n2)CCN1c1cc(-c2ccccc2O)nnc1N` [Compound P-83, N-(3-(4-(4-(3-amino-6-(2-hydroxyphenyl)pyridazin-4-yl)-3,3-dimethylpiperazin-1-yl)pyrimidin-2-yl)prop-2-yn-1-yl)pyrazolo[1,5-a]pyrimidine-2-carboxamide], for which the DC50 in assay [1] was in the range of 0.5 to 5 µM; in assay [2], 0.05 to 0.5 µM. In addition, the “SMARCA2 % Degradation @ 1 μM” value in assay [1] (@ 1 μM) is recorded as “+ (+=<30%)”. Moreover, the inhibition at 1 µM in assay [2] (@ 1 μM) is under 30%.

With `Nc1nnc(-c2ccccc2O)cc1N1CCCN(c2ccnc(C#CCN3CCOCC3)n2)CC1` [Compound P-136, 2-(6-amino-5-(4-(2-(3-morpholinoprop-1-yn-1-yl)pyrimidin-4-yl)-1,4-diazepan-1-yl)pyridazin-3-yl)phenol], the DC50 in assay [1] and in assay [2] was 0.05 to 0.5 µM throughout. In addition, the “SMARCA2 % Degradation @ 1 μM” value in assay [1] (@ 1 μM) is “++ (++=30-70%)”. Besides, the inhibition at 1 µM in assay [2] (@ 1 μM) was 30 to 70%.

For the compound `Cc1cc(C)n(CC#Cc2nccc(N3CCN(c4cc(-c5ccccc5O)nnc4N)CC[C@H]3C)n2)n1` [Compound P-177, o-{5-[(R)-4-{2-[3-(3,5-dimethyl-1-pyrazolyl)-1-propynyl]-4-pyrimidinyl}-5-methyl-1,4-diazepan-1-yl]-6-amino-3-pyridazinyl}phenol], the DC50 in assay [1] and in assay [2] was 0.05 to 0.5 µM throughout. In addition, the “SMARCA2 % Degradation @ 1 μM” value in assay [1] (@ 1 μM) is on record as “++ (++=30-70%)”. Besides, the inhibition at 1 µM in assay [2] (@ 1 μM) is under 30%.

Turning to `Nc1nnc(-c2ccccc2O)cc1N1CCN(c2ccnc(C#CCNC(=O)c3cc4ncccn4n3)n2)CC1` [Compound P-93, N-(3-(4-(4-(3-amino-6-(2-hydroxyphenyl)pyridazin-4-yl)piperazin-1-yl)pyrimidin-2-yl)prop-2-yn-1-yl)pyrazolo[1,5-a]pyrimidine-2-carboxamide], the figures for the DC50 in assay [1] and in assay [2] were 0.05 to 0.5 µM and under 0.05 µM, respectively. Besides, in assay [1] (@ 1 μM), the “SMARCA2 % Degradation @ 1 μM” value is “++ (++=30-70%)”. In assay [2] (@ 1 μM), this compound registered an inhibition at 1 µM of 30 to 70%.

(Values after patent US20260265238A1, “COMPOUNDS AND PHARMACEUTICAL COMPOSITIONS THAT DEGRADE SWI/SNF-RELATED MATRIX-ASSOCIATED ACTIN-DEPENDENT REGULATOR OF CHROMATIN SUBFAMILY A” (Plexium, Inc., priority 2023, published 2026).)
